Calls of active or inactive are those of the source. The rule behind the calls is not given here.
Key:
CAL-27 = assay: Cytotoxicity against human CAL27 cells after 4 days by propidium iodide staining-based fluorometric analysis; assay type: functional, cell-based; conditions: CAL-27, 96 h
[1] = Cytotoxicity against human PAXF 1657L cells after 4 days by propidium iodide staining-based fluorometric analysis; assay type: functional, cell-based; conditions: 96 h
SAOS-2 = assay: Cytotoxicity against human Saos2 cells after 4 days by propidium iodide staining-based fluorometric analysis; assay type: functional, cell-based; conditions: SAOS-2, 96 h, read-out: IC50
[2] = Cytotoxicity against human MDA231 cells after 4 days by propidium iodide staining-based fluorometric analysis; assay type: functional, cell-based; conditions: MDA-MB-231, 96 h
TE-671 = assay: Cytotoxicity against human TE671 cells after 4 days by propidium iodide staining-based fluorometric analysis; assay type: functional, cell-based; conditions: TE-671, 96 h
[3] = Cytotoxicity against human GXF251L cells after 4 days by propidium iodide staining-based fluorometric analysis; assay type: functional, cell-based; conditions: GXF 251L, 96 h
[4] = molecular target: T1, Epidermal growth factor receptor (Homo sapiens, UniProt P00533); assay: Inhibition of EGFR using poly(Glu,Tyr)4:1 as substrate and [gamma33P]ATP at 1 uM after 60 mins by scintillation counting
T1 sequence (P00533 whole entry): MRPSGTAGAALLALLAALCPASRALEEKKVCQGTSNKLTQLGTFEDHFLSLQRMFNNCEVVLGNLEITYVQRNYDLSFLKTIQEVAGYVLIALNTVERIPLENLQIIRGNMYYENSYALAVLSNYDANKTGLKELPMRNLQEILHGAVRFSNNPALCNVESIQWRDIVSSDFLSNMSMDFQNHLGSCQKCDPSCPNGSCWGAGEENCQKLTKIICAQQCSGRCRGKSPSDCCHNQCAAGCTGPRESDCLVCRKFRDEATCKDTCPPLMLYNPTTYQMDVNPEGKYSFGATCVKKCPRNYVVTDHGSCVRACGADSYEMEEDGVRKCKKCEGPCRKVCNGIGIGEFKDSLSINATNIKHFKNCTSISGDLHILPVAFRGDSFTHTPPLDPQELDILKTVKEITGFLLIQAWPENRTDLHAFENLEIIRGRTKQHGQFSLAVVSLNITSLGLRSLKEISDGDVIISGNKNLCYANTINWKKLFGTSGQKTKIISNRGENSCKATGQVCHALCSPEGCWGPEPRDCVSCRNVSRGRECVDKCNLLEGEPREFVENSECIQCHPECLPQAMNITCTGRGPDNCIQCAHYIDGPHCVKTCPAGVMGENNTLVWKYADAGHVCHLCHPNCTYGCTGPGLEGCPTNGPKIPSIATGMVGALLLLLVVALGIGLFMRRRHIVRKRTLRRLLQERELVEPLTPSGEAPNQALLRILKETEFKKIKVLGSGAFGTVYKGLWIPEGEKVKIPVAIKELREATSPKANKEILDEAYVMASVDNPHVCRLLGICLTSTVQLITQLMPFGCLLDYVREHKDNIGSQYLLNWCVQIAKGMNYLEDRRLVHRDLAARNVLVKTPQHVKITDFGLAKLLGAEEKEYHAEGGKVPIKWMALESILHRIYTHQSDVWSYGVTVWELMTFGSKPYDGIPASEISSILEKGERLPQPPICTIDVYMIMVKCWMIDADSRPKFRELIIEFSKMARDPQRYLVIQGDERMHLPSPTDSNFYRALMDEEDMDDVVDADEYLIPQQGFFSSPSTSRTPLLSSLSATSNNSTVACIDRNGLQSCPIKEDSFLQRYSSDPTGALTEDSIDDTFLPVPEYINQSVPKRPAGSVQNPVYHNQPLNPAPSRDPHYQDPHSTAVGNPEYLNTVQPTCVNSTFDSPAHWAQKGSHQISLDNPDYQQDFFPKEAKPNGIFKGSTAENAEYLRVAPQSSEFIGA

NCI-H460 = assay: Cytotoxicity against human H460 cells after 4 days by propidium iodide staining-based fluorometric analysis; assay type: functional, cell-based; conditions: NCI-H460, 96 h
[5] = Cytotoxicity against human RXF 393NL cells after 4 days by propidium iodide staining-based fluorometric analysis; assay type: functional, cell-based; conditions: 96 h
HT-29 = assay: Cytotoxicity against human HT-29 cells after 4 days by propidium iodide staining-based fluorometric analysis; assay type: functional, cell-based; conditions: HT-29, 96 h
[6] = Cytotoxicity against human CXF 269L cells after 4 days by propidium iodide staining-based fluorometric analysis; assay type: functional, cell-based; conditions: 96 h
PANC-1 = assay: Cytotoxicity against human PANC1 cells after 4 days by propidium iodide staining-based fluorometric analysis; assay type: functional, cell-based; conditions: PANC-1, 96 h
[7] = Cytotoxicity against human PXF 1752L cells after 4 days by propidium iodide staining-based fluorometric analysis; assay type: functional, cell-based; conditions: 96 h
DU-145 = assay: Cytotoxicity against human DU145 cells after 4 days by propidium iodide staining-based fluorometric analysis; assay type: functional, cell-based; conditions: DU-145, 96 h
MKN-45 = assay: Cytotoxicity against human MKN45 cells after 4 days by propidium iodide staining-based fluorometric analysis; assay type: functional, cell-based; conditions: MKN-45, 96 h
[8] = molecular target: T1, Epidermal growth factor receptor; assay: Inhibition of EGFR autophosphorylation in EGF-stimulated human A431 cells after 1 hr by immunoblotting; assay type: cell-based, A-431
HCT-116 = assay: Cytotoxicity against human HCT116 cells after 4 days by propidium iodide staining-based fluorometric analysis; assay type: functional, cell-based; conditions: HCT-116, 96 h
LNCaP = assay: Cytotoxicity against human LNCAP cells after 4 days by propidium iodide staining-based fluorometric analysis; assay type: functional, cell-based; conditions: 96 h
[9] = Cytotoxicity against human OVXF 899L cells after 4 days by propidium iodide staining-based fluorometric analysis; assay type: functional, cell-based; conditions: 96 h
CWR22R = assay: Cytotoxicity against human 22Rv1 cells after 4 days by propidium iodide staining-based fluorometric analysis; assay type: functional, cell-based; conditions: 22Rv1, 96 h
OVCAR-3 = assay: Cytotoxicity against human OVCAR3 cells after 4 days by propidium iodide staining-based fluorometric analysis; assay type: functional, cell-based; conditions: OVCAR-3, 96 h
[10] = Cytotoxicity against human DIFI cells after 4 days by propidium iodide staining-based fluorometric analysis; assay type: functional, cell-based; conditions: 96 h
[11] = Cytotoxicity against human MEXF 462NL cells after 4 days by propidium iodide staining-based fluorometric analysis; assay type: functional, cell-based; conditions: 96 h
[12] = molecular target: T1, Epidermal growth factor receptor; assay: Inhibition of EGFR using poly(Glu,Tyr)4:1 as substrate and [gamma33P]ATP after 60 mins by scintillation counting
[13] = Cytotoxicity against human MAXF 401NL cells after 4 days by propidium iodide staining-based fluorometric analysis; assay type: functional, cell-based; conditions: 96 h
[14] = molecular target: Vascular endothelial growth factor receptor 2 (Homo sapiens) (UniProt P35968); assay: Inhibition of VEGFR2 using poly(Glu,Tyr)4:1 as substrate and [gamma33P]ATP at 1 uM after 60 mins by scintillation counting
Vascular endothelial growth factor receptor 2 (Homo sapiens), sequence (P35968 whole entry): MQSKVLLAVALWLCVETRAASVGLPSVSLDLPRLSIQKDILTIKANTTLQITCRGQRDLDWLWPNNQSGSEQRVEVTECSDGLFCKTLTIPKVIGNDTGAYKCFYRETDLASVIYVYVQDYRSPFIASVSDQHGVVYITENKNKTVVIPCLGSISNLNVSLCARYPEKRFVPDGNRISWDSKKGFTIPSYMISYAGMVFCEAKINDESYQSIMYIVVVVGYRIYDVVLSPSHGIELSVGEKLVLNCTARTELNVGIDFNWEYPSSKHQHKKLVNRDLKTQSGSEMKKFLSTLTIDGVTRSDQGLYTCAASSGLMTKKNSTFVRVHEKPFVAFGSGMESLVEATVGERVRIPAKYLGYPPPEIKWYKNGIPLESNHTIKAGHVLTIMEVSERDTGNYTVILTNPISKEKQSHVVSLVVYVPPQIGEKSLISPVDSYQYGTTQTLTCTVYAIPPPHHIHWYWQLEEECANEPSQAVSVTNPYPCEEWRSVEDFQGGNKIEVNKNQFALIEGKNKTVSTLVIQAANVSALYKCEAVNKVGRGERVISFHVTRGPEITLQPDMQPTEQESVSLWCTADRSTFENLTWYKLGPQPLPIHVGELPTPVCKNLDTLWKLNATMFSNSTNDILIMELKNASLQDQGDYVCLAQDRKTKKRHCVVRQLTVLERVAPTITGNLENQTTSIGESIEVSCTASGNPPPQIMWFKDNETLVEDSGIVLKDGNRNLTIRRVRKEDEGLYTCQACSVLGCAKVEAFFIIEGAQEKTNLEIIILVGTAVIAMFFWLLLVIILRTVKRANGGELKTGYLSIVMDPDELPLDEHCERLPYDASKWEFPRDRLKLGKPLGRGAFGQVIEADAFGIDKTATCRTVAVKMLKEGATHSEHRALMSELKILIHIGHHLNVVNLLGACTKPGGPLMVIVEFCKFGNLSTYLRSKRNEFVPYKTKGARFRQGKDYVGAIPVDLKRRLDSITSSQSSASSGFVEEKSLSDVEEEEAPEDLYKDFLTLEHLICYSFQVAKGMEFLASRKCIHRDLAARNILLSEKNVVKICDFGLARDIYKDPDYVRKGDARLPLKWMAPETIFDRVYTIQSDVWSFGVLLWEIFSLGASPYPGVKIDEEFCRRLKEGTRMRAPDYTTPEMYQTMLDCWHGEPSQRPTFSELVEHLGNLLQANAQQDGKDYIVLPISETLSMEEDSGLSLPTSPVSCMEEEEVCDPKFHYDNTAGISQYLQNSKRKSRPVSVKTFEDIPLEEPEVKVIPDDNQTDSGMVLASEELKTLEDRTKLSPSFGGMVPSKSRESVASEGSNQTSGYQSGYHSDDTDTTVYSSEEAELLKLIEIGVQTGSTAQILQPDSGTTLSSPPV

[15] = molecular target: Hepatocyte growth factor receptor (Homo sapiens) (UniProt P08581); assay: Inhibition of MET using poly(Ala, Glu, Lys, Tyr) as substrate and [gamma33P]ATP at 1 uM after 60 mins by scintillation counting
Hepatocyte growth factor receptor (Homo sapiens), sequence (P08581 whole entry): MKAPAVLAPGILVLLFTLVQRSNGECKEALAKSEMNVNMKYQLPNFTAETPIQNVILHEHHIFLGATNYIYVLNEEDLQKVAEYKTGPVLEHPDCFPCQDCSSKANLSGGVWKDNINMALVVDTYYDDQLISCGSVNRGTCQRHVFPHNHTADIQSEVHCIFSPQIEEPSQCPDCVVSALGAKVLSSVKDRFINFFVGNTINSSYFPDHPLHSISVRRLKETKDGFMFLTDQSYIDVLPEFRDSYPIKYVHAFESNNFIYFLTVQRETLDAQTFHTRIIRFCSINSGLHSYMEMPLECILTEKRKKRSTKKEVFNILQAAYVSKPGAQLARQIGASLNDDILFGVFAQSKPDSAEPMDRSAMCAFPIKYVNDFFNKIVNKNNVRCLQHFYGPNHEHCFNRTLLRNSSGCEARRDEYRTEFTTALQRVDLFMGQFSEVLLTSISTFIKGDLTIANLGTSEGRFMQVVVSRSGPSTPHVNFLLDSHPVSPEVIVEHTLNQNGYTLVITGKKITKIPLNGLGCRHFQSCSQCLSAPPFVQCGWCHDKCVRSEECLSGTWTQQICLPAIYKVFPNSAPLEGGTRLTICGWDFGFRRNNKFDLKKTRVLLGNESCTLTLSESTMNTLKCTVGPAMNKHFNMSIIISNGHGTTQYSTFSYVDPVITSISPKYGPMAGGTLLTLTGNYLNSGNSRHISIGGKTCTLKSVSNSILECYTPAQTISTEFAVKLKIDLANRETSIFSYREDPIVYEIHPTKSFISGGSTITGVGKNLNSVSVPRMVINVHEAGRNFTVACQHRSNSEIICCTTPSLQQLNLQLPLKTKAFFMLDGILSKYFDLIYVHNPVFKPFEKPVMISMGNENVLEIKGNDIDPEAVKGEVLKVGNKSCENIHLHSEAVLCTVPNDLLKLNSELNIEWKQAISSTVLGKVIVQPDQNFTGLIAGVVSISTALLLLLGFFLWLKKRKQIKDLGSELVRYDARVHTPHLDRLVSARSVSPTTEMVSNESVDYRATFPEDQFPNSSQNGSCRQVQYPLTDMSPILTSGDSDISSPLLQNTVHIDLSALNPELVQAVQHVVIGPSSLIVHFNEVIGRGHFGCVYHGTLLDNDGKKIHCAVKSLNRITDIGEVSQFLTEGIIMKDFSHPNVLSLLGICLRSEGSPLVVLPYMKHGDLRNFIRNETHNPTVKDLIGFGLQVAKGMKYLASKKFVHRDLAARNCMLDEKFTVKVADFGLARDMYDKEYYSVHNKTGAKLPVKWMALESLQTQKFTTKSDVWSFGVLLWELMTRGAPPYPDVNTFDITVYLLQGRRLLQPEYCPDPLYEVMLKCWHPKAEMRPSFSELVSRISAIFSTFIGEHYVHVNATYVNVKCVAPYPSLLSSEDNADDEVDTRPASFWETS

[16] = Cytotoxicity against human MEXF 276L cells after 4 days by propidium iodide staining-based fluorometric analysis; assay type: functional, cell-based; conditions: MEXF276L, 96 h
[17] = molecular target: Receptor tyrosine-protein kinase erbB-2 (Homo sapiens) (UniProt P04626); assay: Inhibition of Erbb2 using poly(Glu,Tyr)4:1 as substrate and [gamma33P]ATP at 1 uM after 60 mins by scintillation counting
[18] = Cytotoxicity against human LXFA 526L cells after 4 days by propidium iodide staining-based fluorometric analysis; assay type: functional, cell-based; conditions: 96 h
[19] = Cytotoxicity against human RXF 1781L cells after 4 days by propidium iodide staining-based fluorometric analysis; assay type: functional, cell-based; conditions: 96 h
MCF7 = assay: Cytotoxicity against human MCF7 cells after 4 days by propidium iodide staining-based fluorometric analysis; assay type: functional, cell-based; conditions: MCF7, 96 h
[20] = Cytotoxicity against human PAXF 546L cells after 4 days by propidium iodide staining-based fluorometric analysis; assay type: functional, cell-based; conditions: 96 h
[21] = Cytotoxicity against human PC3M cells after 4 days by propidium iodide staining-based fluorometric analysis; assay type: functional, cell-based; conditions: PC-3M, 96 h
[22] = Cytotoxicity against human BXF 1218L cells after 4 days by propidium iodide staining-based fluorometric analysis; assay type: functional, cell-based; conditions: 96 h
[23] = Cytotoxicity against human UXF 1138L cells after 4 days by propidium iodide staining-based fluorometric analysis; assay type: functional, cell-based; conditions: 96 h
[24] = Cytotoxicity against human RXF 486L cells after 4 days by propidium iodide staining-based fluorometric analysis; assay type: functional, cell-based; conditions: 96 h
[25] = molecular target: Tyrosine-protein kinase ABL1 (Homo sapiens) (UniProt P00519); assay: Inhibition of ABL1 using poly(Ala, Glu, Lys, Tyr) as substrate and [gamma33P]ATP at 1 uM after 60 mins by scintillation counting
Tyrosine-protein kinase ABL1 (Homo sapiens), sequence (P00519 whole entry): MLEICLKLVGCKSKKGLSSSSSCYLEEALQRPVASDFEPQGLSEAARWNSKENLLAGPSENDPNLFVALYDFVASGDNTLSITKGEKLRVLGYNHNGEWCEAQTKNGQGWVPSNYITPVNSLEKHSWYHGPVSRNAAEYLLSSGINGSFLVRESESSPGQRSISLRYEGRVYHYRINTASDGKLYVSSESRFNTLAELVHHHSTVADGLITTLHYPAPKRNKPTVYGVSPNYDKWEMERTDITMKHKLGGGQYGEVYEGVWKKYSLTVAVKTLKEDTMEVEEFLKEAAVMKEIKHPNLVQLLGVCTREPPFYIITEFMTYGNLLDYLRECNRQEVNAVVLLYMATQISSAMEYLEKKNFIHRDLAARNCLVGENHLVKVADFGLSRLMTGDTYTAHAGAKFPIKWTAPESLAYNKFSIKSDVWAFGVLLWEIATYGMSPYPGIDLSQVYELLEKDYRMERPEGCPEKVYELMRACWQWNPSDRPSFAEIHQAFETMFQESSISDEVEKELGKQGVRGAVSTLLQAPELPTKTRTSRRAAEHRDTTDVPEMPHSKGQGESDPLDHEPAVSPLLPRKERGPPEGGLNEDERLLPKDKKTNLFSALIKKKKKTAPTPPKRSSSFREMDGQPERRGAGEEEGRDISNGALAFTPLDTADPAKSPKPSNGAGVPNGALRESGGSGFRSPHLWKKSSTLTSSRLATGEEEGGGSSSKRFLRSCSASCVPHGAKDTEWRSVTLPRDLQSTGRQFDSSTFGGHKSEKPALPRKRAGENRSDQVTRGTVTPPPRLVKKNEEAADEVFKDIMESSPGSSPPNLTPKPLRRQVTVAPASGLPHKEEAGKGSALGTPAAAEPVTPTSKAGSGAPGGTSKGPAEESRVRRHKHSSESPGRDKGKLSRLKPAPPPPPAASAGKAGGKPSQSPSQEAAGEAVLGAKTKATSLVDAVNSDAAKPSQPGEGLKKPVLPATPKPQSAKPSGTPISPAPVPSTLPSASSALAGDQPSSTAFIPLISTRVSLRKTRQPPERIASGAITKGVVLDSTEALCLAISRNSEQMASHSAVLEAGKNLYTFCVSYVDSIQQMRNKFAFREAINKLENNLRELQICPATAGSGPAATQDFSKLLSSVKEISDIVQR

[26] = Cytotoxicity against human LXFL 1121L cells after 4 days by propidium iodide staining-based fluorometric analysis; assay type: functional, cell-based; conditions: 96 h
[27] = Cytotoxicity against human LXFL 529L cells after 4 days by propidium iodide staining-based fluorometric analysis; assay type: functional, cell-based; conditions: 96 h
[28] = Cytotoxicity against human MEXF 1341L cells after 4 days by propidium iodide staining-based fluorometric analysis; assay type: functional, cell-based; conditions: 96 h
[29] = Cytotoxicity against human PXF 698L cells after 4 days by propidium iodide staining-based fluorometric analysis; assay type: functional, cell-based; conditions: 96 h
[30] = Cytotoxicity against human BXF T24 cells after 4 days by propidium iodide staining-based fluorometric analysis; assay type: functional, cell-based; conditions: T-24, 96 h
[31] = Cytotoxicity against human LXFA 629L cells after 4 days by propidium iodide staining-based fluorometric analysis; assay type: functional, cell-based; conditions: 96 h
[32] = Cytotoxicity against human PXF 1118L cells after 4 days by propidium iodide staining-based fluorometric analysis; assay type: functional, cell-based; conditions: 96 h
[33] = Cytotoxicity against human LXFA 289L cells after 4 days by propidium iodide staining-based fluorometric analysis; assay type: functional, cell-based; conditions: 96 h
RKO = assay: Cytotoxicity against human RKO cells after 4 days by propidium iodide staining-based fluorometric analysis; assay type: functional, cell-based; conditions: 96 h
[34] = Cytotoxicity against human LIXF 575L cells after 4 days by propidium iodide staining-based fluorometric analysis; assay type: functional, cell-based; conditions: 96 h
[35] = Cytotoxicity against human BXF 1352L cells after 4 days by propidium iodide staining-based fluorometric analysis; assay type: functional, cell-based; conditions: 96 h

## O=C(c1cc2ccccc2[nH]1)c1cc2c(Nc3cccc(Cl)c3)ncnc2s1
CAL-27
  IC50: 3 µM
[1]
  IC50: 47.6 µM
SAOS-2
  IC50: 19.3 µM
[2]
  IC50: 23.4 µM
TE-671
  IC50: 24.8 µM
[3]
  IC50: 4.3 µM
[4]
  inhibition: 99%
NCI-H460
  IC50: 17.7 µM
[5]
  IC50: 26.4 µM
HT-29
  IC50: 17.7 µM
[6]
  IC50: 28.9 µM
PANC-1
  IC50: 14.8 µM
[7]
  IC50: 30.7 µM
DU-145
  IC50: 9.2 µM
MKN-45
  IC50: 20.2 µM
[8]
  IC50: 0.3 µM
HCT-116
  IC50: 18.9 µM
LNCaP
  IC50: 11.3 µM
[9]
  IC50: 13.9 µM
CWR22R
  IC50: 14 µM
OVCAR-3
  IC50: 15.3 µM
[10]
  IC50: 1.8 µM
[11]
  IC50: 24 µM
[12]
  IC50: 0.0166 µM
[13]
  IC50: 7.3 µM
[14]
  inhibition: 20%
[15]
  inhibition: inactive
[16]
  IC50: 27.1 µM
[17]
  inhibition: 73%
[18]
  IC50: 13.6 µM
[19]
  IC50: 20 µM
MCF7
  IC50: 12.5 µM
[20]
  IC50: 25.1 µM
[21]
  IC50: 14.1 µM
[22]
  IC50: 21.5 µM
[23]
  IC50: 8.6 µM
[24]
  IC50: 13.1 µM
[25]
  inhibition: inactive
[26]
  IC50: 16 µM
[27]
  IC50: 7.6 µM
[28]
  IC50: 20.1 µM
[29]
  IC50: 31 µM
[30]
  IC50: 23.7 µM
[31]
  IC50: 6 µM
[32]
  IC50: 49.7 µM
[33]
  IC50: 4.7 µM
RKO
  IC50: 18.1 µM
[34]
  IC50: 18.1 µM
[35]
  IC50: 15.9 µM

From ChEMBL document CHEMBL1926681, “Novel inhibitors of epidermal growth factor receptor: (4-(Arylamino)-7H-pyrrolo[2,3-d]pyrimidin-6-yl)(1H-indol-2-yl)methanones and (1H-indol-2-yl)(4-(phenylamino)thieno[2,3-d]pyrimidin-6-yl)methanones” (Bioorg Med Chem, 2012)
